IC50 data for 33 compounds are collected here from patent publication US8324245B2, “Quinoline derivative and quinazoline derivative inhibiting self-phosphorylation of hepatocytus proliferator receptor, and medicinal composition containing the same” (Kyowa Hakko Kirin Co., Ltd., priority 2001, dated 2012).

The test deals with T1, met (HGF receptor) in human gastric cancer cells MKN45 (Homo sapiens, UniProt P08581).
T1 construct: endogenous in cells; host or cells: MKN45 human gastric cancer cells
T1 sequence (P08581 25-1390): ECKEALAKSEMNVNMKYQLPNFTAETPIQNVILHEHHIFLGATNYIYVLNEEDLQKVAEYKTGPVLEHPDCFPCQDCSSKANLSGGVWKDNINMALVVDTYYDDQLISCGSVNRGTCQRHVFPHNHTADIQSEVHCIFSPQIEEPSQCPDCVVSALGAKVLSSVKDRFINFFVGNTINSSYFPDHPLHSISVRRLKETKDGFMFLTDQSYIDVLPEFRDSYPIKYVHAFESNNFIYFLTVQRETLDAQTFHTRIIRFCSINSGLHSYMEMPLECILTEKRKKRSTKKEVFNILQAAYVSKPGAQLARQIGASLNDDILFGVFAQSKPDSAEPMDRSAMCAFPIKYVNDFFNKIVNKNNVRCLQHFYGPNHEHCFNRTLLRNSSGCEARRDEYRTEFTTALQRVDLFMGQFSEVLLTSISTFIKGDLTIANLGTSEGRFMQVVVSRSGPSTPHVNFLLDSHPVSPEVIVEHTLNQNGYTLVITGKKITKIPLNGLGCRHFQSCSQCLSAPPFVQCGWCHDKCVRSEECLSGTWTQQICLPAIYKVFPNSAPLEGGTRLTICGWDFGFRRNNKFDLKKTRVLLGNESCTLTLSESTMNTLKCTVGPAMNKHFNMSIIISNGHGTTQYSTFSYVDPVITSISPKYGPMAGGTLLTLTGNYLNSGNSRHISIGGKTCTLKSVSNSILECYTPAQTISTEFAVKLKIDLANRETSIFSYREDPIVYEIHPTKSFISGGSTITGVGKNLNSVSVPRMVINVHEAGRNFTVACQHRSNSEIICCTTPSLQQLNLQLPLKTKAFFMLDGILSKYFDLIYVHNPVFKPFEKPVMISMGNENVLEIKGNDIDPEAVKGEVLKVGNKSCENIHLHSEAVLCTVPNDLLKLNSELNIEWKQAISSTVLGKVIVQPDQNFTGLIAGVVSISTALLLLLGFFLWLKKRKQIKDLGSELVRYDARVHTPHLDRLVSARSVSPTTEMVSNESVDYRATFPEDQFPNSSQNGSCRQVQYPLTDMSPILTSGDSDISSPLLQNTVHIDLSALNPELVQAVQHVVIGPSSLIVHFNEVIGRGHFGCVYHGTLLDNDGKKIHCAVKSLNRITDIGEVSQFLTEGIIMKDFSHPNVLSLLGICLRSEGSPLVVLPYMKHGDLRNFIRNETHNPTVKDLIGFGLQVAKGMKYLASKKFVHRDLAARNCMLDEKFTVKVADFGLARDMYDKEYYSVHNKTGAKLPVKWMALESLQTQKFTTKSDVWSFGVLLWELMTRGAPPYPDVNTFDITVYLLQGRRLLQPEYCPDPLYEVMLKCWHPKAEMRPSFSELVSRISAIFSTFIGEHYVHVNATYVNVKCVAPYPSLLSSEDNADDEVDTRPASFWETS
The test is described as follows: Inhibitory activity against met-autophosphorylation using ELISA method (2), MKN45 cells, HGF-independent. The class given is cell-based. As for the experimental part: Cells were cultured with RPMI medium containing 0.1% fetal calf serum in 96-well flat-bottom plate in an amount of 3×10^4 per well, and were incubated at 37° C. overnight. The medium was then replaced by a fresh RPMI medium containing 0.1% fetal calf serum. A solution of the test compound in dimethyl sulfoxide was added to each well, and the incuvation was continued at 37° C. for additional one hr. The medium was removed, the cells were washed with phosphate buffered saline (pH 7.4), and 50 μl of a lysis buffer (20 mM HEPES (pH 7.4), 150 mM NaCl, 0.2% Triton X-100, 10% glycerol, 5 mM sodium orthovanadylate, 5 mM disodium ethylenediaminetetraacetate, and 2 mM Na4P2O7) was then added thereto. The mixture was shaken at 4° C. for 2 hr to prepare a cell extract.
Separately, phosphate buffered saline (50 μl, pH 7.4) containing 5 μg/ml of anti-phospho-tyrosine antibody (PY20; purchased from Transduction Laboratories) was added to a microplate for ELISA (Maxisorp; purchased from NUNC), followed by gentle agitation at 4° C. overnight to coat the surface of the wells with the antibody. After washing of the plate, 300 μl of a blocking solution was added, followed by gentle agitation at room temperature for 2 hr to perform blocking. After washing, the whole quantity of the cell extract was transferred to the wells, and the plate was then allowed to stand at 4° C. overnight. After washing, an anti-HGF receptor antibody (h-Met (C-12), purchased from Santa Cruz Biotechnology) was allowed to react at room temperature for one hr, and, after washing, a peroxidase-labeled anti-rabbit Ig antibody (purchased from Amersham) was allowed to react at room temperature for one hr. After washing, a chromophoric substrate for peroxidase (purchased from Sumitomo Bakelite Co., Ltd.) was added thereto to initiate a reaction. After a suitable level of color development, a reaction termination solution was added to stop the reaction, and the absorbance at 450 nm was measured with a microplate reader.

With `COc1cc2nccc(Oc3ccc(NC(=S)NC(=O)C4C[C@@H]4c4ccccc4)cc3)c2cc1OC` (stereo in doubt) [Example 150, 1-[4-(6,7-dimethoxyquinolin-4-yloxy)phenyl]-3-(2-phenylcyclopropanecarbonyl)thiourea], inhibition was half-maximal at 1280 nM (IC50).
The same measure for `COc1cc2nccc(Oc3ccc(NC(=O)NC(=O)Cc4ccccc4)cc3)c2cc1OC` [Example 4, 1-[4-(6,7-dimethoxyquinolin-4-yloxy)phenyl]-3-phenyl-acetylurea]: 75 nM; for `COc1cc2nccc(Oc3ccc(NC(=O)CC(=O)Nc4ccc(F)cc4)cc3)c2cc1OC` [Example 5, N-[4-(6,7-dimethoxyquinolin-4-yloxy)phenyl]-N′-(4-fluorophenyl)malonamide]: 18.9 nM.
As for `COc1cc2nccc(Oc3ccc(NC(=O)CC(=O)Nc4ccc(F)cc4F)cc3Cl)c2cc1OC` [Example 6, N-[3-chloro-4-(6,7-dimethoxyquinolin-4-yloxy)-phenyl]-N′-(2,4-difluorophenyl)malonamide], the midpoint of inhibition, the IC50, lay at 31.6 nM.
As to `COc1cc2nccc(Oc3ccc(NC(=O)NC(=O)CSC4CCCC4)cc3)c2cc1OC` [Example 7, 1-(2-cyclopentylsulfanylacetyl)-3-[4-(6,7-dimethoxyquinolin-4-yloxy)phenyl]urea], the midpoint of inhibition, the IC50, lay at 292 nM.
Take `COc1cc2nccc(Oc3ccc(NC(=O)NC(=O)CN4CCc5ccccc54)cc3Cl)c2cc1OC` [Example 8, 1-[3-chloro-4-(6,7-dimethoxyquinolin-4-yloxy)-phenyl]-3-[2-(2,3-dihydro-1H-1-indol-1-yl)acetyl]-urea]: the IC50 – broadly, the concentration that inhibits the measured activity by half – amounted to 298 nM. The IC50 values of the last two compounds are within 1.5-fold of each other.
The same measure for `COc1cc2c(Oc3ccc(NC(=O)NC(=O)Cc4ccccc4)cc3F)ccnc2cc1OCCCCN1CCN(C)CC1` [Example 12, 1-(3-fluoro-4-{6-methoxy-7-[4-(4-methyl-piperazin-1-yl)-butoxy]quinolin-4-yloxy}phenyl)-3-phenylacetylurea]: 199 nM; for `COc1cc2c(Oc3ccc(NC(=O)NC(=O)Cc4ccccc4)cc3F)ccnc2cc1OCCN1CCCCC1` [Example 13, 1-{3-fluoro-4-[6-methoxy-7-(2-piperidin-1-yl-ethoxy)quinolin-4-yloxy]phenyl}-3-phenylacetylurea]: 141 nM; for `COc1cc2c(Oc3ccc(NC(=O)NC(=O)Cc4ccccc4)cc3F)ccnc2cc1OCCCCl` [Example 14, 1-{4-[7-(3-chloro-propoxy)-6-methoxyquinolin-4-yloxy]-3-fluorophenyl}-3-phenylacetylurea]: 291 nM.
`COc1cc2nccc(Oc3ccc(NC(=O)C(C)C(=O)Nc4ccc(F)cc4F)cc3)c2cc1OC` (stereo not drawn) [Example 15, N-(2,4-difluorophenyl)-N′-[4-(6,7-dimethoxy-quinolin-4-yloxy)phenyl]-2-methylmalonamide] yielded an IC50 of 302 nM.
In the case of `COc1cc2nccc(Oc3ccc(NC(=O)NC(=O)Cc4ccccc4)c(F)c3)c2cc1OC` [Example 16, 1-[4-(6,7-dimethoxyquinolin-4-yloxy)-2-fluoro-phenyl]-3-phenylacetylurea] it was 32.8 nM; in that of `COc1cc2nccc(Oc3ccc(NC(=O)NC(=O)Cc4ccccc4)cc3F)c2cc1OC` [Example 17, 1-[4-(6,7-dimethoxyquinolin-4-yloxy)-3-fluoro-phenyl]-3-phenylacetylurea], 30.7 nM; in that of `COc1cc2nccc(Oc3ccc(NC(=O)NC(=O)Cc4ccccc4)cc3Cl)c2cc1OC` [Example 18, 1-[3-chloro-4-(6,7-dimethoxyquinolin-4-yloxy)-phenyl]-3-phenylacetylurea], 150 nM.
As for `COc1cc2nccc(Oc3ccc(NC(=O)NC(=O)Cc4ccsc4)c(F)c3)c2cc1OC` [Example 19, 1-[4-(6,7-dimethoxyquinolin-4-yloxy)-2-fluoro-phenyl]-3-(2-thiophen-3-ylacetyl)urea], the IC50 stood at 104 nM.
As for `COc1cc2nccc(Oc3ccc(NC(=O)NC(=O)Cc4ccsc4)cc3F)c2cc1OC` [Example 20, 1-[4-(6,7-dimethoxyquinolin-4-yloxy)-3-fluoro-phenyl]-3-(2-thiophen-3-ylacetyl)urea], the IC50 was determined as 31.8 nM. This IC50 lies about 3.3-fold lower than the previous one.
Compound `COc1cc2nccc(Oc3ccc(NC(=O)NC(=O)Cc4ccsc4)cc3Cl)c2cc1OC` [Example 21, 1-[3-chloro-4-(6,7-dimethoxyquinolin-4-yloxy)-phenyl]-3-(2-thiophen-3-ylacetyl)urea] showed a 50% inhibitory concentration (IC50) of 188 nM.
In the case of `COc1cc2nccc(Oc3ccc(NC(=O)NC(=O)Cc4ccc(F)cc4)cc3)c2cc1OC` [Example 22, 1-[4-(6,7-dimethoxyquinolin-4-yloxy)phenyl]-3-[2-(4-fluorophenyl)acetyl]urea] it was 24.6 nM.
The same measure for `COc1cc2nccc(Oc3ccc(NC(=O)NC(=O)Cc4ccc(F)cc4)cc3F)c2cc1OC` [Example 23, 1-[4-(6,7-dimethoxyquinolin-4-yloxy)-3-fluoro-phenyl]-3-[2-(4-fluorophenyl)acetyl]urea]: 26.3 nM; for `COc1cc2nccc(Oc3ccc(NC(=O)NC(=O)Cc4ccc(F)cc4)cc3Cl)c2cc1OC` [Example 24, 1-[3-chloro-4-(6,7-dimethoxyquinolin-4-yloxy)phenyl]-3-[2-(4-fluorophenyl)acetyl]urea]: 27.7 nM; for `COc1cc2nccc(Oc3ccc(NC(=O)NC(=O)Cc4ccccc4F)cc3)c2cc1OC` [Example 25, 1-[4-(6,7-dimethoxyquinolin-4-yloxy)phenyl]-3-[2-(2-fluorophenyl)acetyl]urea]: 140 nM.
On to `COc1cc2nccc(Oc3ccc(NC(=O)NC(=O)Cc4ccccc4F)c(F)c3)c2cc1OC` [Example 26, 1-[4-(6,7-dimethoxyquinolin-4-yloxy)-2-fluoro-phenyl]-3-[2-(2-fluorophenyl)acetyl]urea], for which it took 126 nM to reach half-maximal inhibition (IC50).
`COc1cc2nccc(Oc3ccc(NC(=O)NC(=O)Cc4ccccc4F)cc3F)c2cc1OC` [Example 27, 1-[4-(6,7-dimethoxyquinolin-4-yloxy)-3-fluorophenyl]-3-[2-(2-fluorophenyl)acetyl]urea] came in with a half-maximal inhibitory concentration (IC50) of 80 nM.
In the case of `COc1cc2nccc(Oc3ccc(NC(=O)NC(=O)Cc4ccccc4F)cc3Cl)c2cc1OC` [Example 28, 1-[3-chloro-4-(6,7-dimethoxyquinolin-4-yloxy)-phenyl]-3-[2-(2-fluorophenyl)acetyl]urea] it was 162 nM.
For the compound `COc1cc2nccc(Oc3ccc(NC(=O)NC(=O)Cc4cccs4)cc3)c2cc1OC` [Example 29, 1-[4-(6,7-dimethoxyquinolin-4-yloxy)phenyl]-3-(2-thiophen-2-ylacetyl)urea], the 50% inhibitory concentration (IC50) is 37.1 nM.
Consider `COc1cc2nccc(Oc3ccc(NC(=O)NC(=O)Cc4cccs4)c(F)c3)c2cc1OC` [Example 30, 1-[4-(6,7-dimethoxyquinolin-4-yloxy)-2-fluoro-phenyl]-3-(2-thiophen-2-ylacetyl)urea], for which half-maximal inhibition (IC50) was put at 35.1 nM.
The same measure for `COc1cc2nccc(Oc3ccc(NC(=O)NC(=O)Cc4cccs4)cc3F)c2cc1OC` [Example 31, 1-[4-(6,7-dimethoxyquinolin-4-yloxy)-3-fluoro-phenyl]-3-(2-thiophen-2-ylacetyl)urea]: 34.1 nM.
The same measure for `COc1cc2nccc(Oc3ccc(NC(=O)NC(=O)Cc4cccs4)cc3Cl)c2cc1OC` [Example 32, 1-[3-chloro-4-(6,7-dimethoxyquinolin-4-yloxy)-phenyl]-3-(2-thiophen-2-ylacetyl)urea]: 171 nM.
`COc1cc2nccc(Oc3ccc(NC(=O)NC(=O)Cc4ccc(F)cc4F)c(F)c3)c2cc1OC` [Example 33, 1-[2-(2,4-difluorophenyl)acetyl]-3-[4-(6,7-dimethoxyquinolin-4-yloxy)-2-fluorophenyl]urea] came in with a half-maximal inhibitory concentration (IC50) of 61.8 nM.
The same measure for `COc1cc2nccc(Oc3ccc(NC(=O)NC(=O)Cc4ccc(F)cc4F)cc3F)c2cc1OC` [Example 34, 1-[2-(2,4-difluorophenyl)acetyl]-3-[4-(6,7-dimethoxyquinolin-4-yloxy)-3-fluorophenyl]urea]: 46.3 nM.
The same measure for `COc1cc2nccc(Oc3ccc(NC(=O)NC(=O)Cc4ccc(F)c(F)c4)cc3F)c2cc1OC` [Example 35, 1-[2-(3,4-difluorophenyl)acetyl]-3-[4-(6,7-dimethoxyquinolin-4-yloxy)-3-fluorophenyl]urea]: 41.4 nM; for `COc1cc2nccc(Oc3ccc(NC(=O)NC(=O)Cc4cccc(F)c4)c(F)c3)c2cc1OC` [Example 36, 1-[4-(6,7-dimethoxyquinolin-4-yloxy)-2-fluoro-phenyl]-3-[2-(3-fluorophenyl)acetyl]urea]: 198 nM; for `COc1cc2nccc(Oc3ccc(NC(=O)NC(=O)Cc4cccc(F)c4)cc3F)c2cc1OC` [Example 37, 1-[4-(6,7-dimethoxyquinolin-4-yloxy)-3-fluoro-phenyl]-3-[2-(3-fluorophenyl)acetyl]urea]: 58.4 nM.
`COc1cc(Oc2ccnc3cc(OC)c(OC)cc23)ccc1NC(=O)NC(=O)Cc1ccc(F)cc1` [Example 38, 1-[4-(6,7-dimethoxyquinolin-4-yloxy)-2-methoxyphenyl]-3-[2-(4-fluorophenyl)acetyl]urea] had a concentration for half-maximal inhibition (IC50) of 29.1 nM.
